We go through ten molecules from ChEMBL document CHEMBL5465560, “Selectivity Literature for EUbOPEN Chemogenomic Library” (2024).

Data set [1] concerns the target Serine/threonine-protein kinase 38-like (Homo sapiens) (UniProt Q9Y2H1). The data set is described as follows: Selectivity interaction (KinomeScan (DiscoverX)) EUB0000666a STK38L. To be noted: at 10 µM.
For data set [2], the target named is RAC-beta serine/threonine-protein kinase (Homo sapiens) (UniProt P31751). The data set is described as follows: Selectivity interaction (SelectScreen profiling (Invitrogen)) EUB0000607a AKT2. The settings on record: at 2 µM.
Data set [3] addresses T1, Dual specificity mitogen-activated protein kinase kinase 5 (Homo sapiens) (UniProt Q13163).
T1 sequence (whole entry): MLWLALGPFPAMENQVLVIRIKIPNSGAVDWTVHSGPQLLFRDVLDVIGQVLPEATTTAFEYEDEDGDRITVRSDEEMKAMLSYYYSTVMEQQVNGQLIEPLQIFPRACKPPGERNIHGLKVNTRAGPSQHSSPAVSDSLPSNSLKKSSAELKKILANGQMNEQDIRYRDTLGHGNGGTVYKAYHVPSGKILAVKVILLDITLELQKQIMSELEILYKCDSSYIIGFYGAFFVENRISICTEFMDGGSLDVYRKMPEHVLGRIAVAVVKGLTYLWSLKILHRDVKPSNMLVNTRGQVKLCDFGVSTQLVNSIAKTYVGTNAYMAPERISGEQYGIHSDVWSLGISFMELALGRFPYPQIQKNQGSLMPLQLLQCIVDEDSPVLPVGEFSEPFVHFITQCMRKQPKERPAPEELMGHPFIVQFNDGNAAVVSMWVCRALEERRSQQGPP
The data set is described as follows: Selectivity interaction (ActivX KiNativ screen (kinase selectivity in THP-1 cell lysates)) EUB0000639a MAP2K5. In kind it is subcellular. The settings on record: lysate.

Data set [4] has as its target T2, Dual specificity mitogen-activated protein kinase kinase 6 (Homo sapiens) (UniProt P52564).
T2 sequence (whole entry): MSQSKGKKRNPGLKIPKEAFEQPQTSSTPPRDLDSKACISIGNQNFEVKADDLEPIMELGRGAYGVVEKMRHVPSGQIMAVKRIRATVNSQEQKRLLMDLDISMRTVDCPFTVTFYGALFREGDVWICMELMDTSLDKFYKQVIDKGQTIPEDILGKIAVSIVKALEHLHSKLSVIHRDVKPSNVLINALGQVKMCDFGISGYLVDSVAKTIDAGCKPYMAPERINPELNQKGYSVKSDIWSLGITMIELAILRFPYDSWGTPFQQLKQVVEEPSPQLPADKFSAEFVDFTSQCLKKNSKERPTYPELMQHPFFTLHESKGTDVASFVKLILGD
The data set is described as follows: Selectivity interaction (Kinase panel (DSF assay)) EUB0001559a MAP2K6. (In general: DSF heats the sample and reads unfolding from a dye or from intrinsic fluorescence.)

In data set [5] the target is T3, Serine/threonine-protein kinase 36 (Homo sapiens) (UniProt Q9NRP7).
T3 sequence (whole entry): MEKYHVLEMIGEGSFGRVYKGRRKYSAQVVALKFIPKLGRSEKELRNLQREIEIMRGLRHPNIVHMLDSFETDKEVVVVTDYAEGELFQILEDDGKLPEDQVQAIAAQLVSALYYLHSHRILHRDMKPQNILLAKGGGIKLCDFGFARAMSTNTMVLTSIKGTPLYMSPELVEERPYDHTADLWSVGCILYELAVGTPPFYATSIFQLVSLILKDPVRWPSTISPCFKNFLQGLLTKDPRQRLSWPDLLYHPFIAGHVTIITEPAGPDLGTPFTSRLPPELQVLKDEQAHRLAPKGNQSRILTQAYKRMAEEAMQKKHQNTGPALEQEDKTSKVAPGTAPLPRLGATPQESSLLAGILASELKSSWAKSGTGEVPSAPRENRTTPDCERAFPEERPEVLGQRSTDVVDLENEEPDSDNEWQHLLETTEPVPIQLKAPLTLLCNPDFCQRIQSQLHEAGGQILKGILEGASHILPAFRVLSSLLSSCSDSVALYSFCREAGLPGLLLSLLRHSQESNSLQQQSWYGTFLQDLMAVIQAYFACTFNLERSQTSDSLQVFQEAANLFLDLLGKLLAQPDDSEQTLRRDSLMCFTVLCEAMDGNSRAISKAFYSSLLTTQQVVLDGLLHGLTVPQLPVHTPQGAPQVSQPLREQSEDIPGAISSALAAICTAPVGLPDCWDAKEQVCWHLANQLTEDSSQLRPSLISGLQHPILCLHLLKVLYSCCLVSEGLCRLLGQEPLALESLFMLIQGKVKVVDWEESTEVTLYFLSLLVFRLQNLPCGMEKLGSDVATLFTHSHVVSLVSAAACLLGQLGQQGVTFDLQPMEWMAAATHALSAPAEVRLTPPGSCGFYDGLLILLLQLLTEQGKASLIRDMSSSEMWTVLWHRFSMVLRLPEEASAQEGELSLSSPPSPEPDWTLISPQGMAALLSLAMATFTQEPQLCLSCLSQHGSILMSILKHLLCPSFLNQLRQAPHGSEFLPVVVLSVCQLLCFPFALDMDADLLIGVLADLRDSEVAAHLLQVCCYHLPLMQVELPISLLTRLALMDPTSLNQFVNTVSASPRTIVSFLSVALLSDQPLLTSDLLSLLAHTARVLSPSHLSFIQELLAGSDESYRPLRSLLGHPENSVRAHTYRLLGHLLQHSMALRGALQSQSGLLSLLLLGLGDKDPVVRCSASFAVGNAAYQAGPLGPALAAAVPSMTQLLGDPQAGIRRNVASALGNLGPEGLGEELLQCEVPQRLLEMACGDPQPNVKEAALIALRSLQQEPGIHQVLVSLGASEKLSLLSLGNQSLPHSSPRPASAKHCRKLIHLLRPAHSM
The data set is described as follows: Selectivity interaction (KinomeScan (DiscoverX)) EUB0000045b STK36.

The target in data set [6] is Citron Rho-interacting kinase (Homo sapiens) (UniProt O14578). Put plainly: Selectivity interaction (KinomeScan (DiscoverX)) EUB0000618a CIT. The settings on record: at 10 µM.
For data set [7], the target named is Cyclin-dependent kinase 16 (Homo sapiens) (UniProt Q00536). The data set is described as follows: Selectivity interaction (KinomeScan (DiscoverX)) EUB0000092b CDK16. The settings on record: at 10 µM.
For data set [8], the target named is KCNE1 (Homo sapiens, UniProt P15382). Put plainly: Selectivity interaction (Panel of kinases, GPCRs, ion channels and transporters (enzymatic assay)) EUB0000266bCl KCNE1.
The target of data set [9] is Casein kinase II subunit alpha (Homo sapiens, UniProt P68400). Put plainly: Selectivity interaction (Millipore kinase profiler) EUB0000124b CSNK2A1. The settings on record: at 10 µM.
Data set [10] deals with Death-associated protein kinase 1 (Homo sapiens, UniProt P53355). Put plainly: Selectivity interaction (KinomeScan (DiscoverX)) EUB0000229b DAPK1. The settings on record: at 10 µM.
Chain of Death-associated protein kinase 1 (P53355 whole entry, looked up): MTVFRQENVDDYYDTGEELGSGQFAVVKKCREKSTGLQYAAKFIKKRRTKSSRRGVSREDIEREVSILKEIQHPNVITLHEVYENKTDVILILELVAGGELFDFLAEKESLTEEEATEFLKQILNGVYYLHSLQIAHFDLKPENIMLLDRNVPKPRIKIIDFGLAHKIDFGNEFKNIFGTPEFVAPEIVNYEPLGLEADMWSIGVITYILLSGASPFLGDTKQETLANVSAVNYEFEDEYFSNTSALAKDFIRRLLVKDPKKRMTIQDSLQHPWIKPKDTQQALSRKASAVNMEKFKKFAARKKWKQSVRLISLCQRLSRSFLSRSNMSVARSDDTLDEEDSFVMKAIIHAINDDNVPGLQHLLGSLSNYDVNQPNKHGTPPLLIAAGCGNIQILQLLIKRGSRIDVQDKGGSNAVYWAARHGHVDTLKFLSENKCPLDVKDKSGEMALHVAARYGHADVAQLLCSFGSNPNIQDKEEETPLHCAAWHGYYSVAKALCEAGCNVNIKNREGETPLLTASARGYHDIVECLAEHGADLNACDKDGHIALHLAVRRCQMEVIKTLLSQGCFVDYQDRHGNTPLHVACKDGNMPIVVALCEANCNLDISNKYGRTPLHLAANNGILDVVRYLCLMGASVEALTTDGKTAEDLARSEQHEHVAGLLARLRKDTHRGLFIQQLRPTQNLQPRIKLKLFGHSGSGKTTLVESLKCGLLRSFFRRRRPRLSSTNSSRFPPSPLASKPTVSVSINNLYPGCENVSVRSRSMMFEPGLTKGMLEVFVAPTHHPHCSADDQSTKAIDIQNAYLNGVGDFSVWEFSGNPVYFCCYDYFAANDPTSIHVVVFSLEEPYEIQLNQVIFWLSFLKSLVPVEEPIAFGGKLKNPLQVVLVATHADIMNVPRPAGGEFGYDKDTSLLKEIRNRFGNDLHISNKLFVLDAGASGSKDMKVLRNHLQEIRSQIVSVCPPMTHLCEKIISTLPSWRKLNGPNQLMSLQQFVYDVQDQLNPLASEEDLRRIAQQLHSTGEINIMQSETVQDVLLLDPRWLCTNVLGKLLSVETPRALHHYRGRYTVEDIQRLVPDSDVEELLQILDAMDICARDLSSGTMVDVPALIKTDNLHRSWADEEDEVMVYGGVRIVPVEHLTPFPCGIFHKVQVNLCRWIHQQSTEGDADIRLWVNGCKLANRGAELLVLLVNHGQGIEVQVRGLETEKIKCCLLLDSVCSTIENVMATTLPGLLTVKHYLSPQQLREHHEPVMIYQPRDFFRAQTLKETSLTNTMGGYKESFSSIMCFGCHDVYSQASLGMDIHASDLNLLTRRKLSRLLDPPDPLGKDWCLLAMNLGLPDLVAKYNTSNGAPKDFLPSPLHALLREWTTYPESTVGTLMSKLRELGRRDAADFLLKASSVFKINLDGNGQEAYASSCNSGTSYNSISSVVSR

Chain of Cyclin-dependent kinase 16 (Homo sapiens) (Q00536 whole entry): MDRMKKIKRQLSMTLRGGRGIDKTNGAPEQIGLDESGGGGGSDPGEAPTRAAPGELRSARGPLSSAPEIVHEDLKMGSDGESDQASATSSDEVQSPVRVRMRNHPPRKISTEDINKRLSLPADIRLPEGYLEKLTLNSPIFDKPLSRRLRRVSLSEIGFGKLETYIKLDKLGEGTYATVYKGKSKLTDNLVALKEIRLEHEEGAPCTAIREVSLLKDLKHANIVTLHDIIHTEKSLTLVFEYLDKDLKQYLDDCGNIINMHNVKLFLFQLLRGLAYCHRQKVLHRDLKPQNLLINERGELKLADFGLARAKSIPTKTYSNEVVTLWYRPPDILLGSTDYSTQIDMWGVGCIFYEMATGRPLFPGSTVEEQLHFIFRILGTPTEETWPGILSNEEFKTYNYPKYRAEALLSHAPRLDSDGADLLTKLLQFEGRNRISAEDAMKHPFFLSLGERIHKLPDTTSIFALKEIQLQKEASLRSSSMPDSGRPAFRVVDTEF
Chain of RAC-beta serine/threonine-protein kinase (Homo sapiens) (P31751 whole entry): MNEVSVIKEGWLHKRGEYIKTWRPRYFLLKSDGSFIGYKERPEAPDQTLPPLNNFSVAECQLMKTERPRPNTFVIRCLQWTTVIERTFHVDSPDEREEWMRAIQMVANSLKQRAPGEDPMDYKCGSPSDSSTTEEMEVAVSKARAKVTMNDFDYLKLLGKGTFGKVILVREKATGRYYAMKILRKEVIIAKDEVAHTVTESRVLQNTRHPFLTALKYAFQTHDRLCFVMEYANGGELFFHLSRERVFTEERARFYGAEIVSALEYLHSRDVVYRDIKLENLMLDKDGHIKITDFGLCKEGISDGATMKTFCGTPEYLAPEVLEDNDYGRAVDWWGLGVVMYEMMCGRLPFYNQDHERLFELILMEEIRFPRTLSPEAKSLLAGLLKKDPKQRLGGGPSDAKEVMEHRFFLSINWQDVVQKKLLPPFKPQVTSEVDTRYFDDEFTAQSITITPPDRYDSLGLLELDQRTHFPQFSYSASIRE
Chain of Casein kinase II subunit alpha (P68400 whole entry, looked up): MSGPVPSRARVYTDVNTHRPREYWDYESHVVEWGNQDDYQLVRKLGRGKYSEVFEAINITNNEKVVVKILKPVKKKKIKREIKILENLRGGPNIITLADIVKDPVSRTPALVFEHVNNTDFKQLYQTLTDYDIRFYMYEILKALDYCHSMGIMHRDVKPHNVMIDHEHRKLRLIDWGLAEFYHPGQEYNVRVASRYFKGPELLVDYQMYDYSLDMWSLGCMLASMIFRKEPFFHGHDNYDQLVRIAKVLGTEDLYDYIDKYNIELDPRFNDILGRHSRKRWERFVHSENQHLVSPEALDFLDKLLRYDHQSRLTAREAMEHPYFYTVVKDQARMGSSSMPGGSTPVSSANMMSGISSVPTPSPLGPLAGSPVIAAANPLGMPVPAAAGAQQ
Chain of Serine/threonine-protein kinase 38-like (Homo sapiens) (Q9Y2H1 2-464 limits assumed): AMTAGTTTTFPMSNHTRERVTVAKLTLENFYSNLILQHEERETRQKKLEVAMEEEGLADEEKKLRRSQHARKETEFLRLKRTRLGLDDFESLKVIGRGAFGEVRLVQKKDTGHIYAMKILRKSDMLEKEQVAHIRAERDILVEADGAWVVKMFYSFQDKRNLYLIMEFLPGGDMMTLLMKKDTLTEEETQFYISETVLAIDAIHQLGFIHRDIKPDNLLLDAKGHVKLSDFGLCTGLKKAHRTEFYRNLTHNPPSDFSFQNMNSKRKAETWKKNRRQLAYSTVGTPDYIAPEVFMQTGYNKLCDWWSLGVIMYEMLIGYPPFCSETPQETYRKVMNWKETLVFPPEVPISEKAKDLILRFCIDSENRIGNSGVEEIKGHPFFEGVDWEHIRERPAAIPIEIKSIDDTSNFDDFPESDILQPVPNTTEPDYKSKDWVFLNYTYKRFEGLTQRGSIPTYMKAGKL

As to `O=C(NOC[C@H](O)CO)c1ccc(F)c(F)c1Nc1ccc(I)cc1F`, the % of control in data set [1] is 100%.

Take `CNC(=O)Nc1ccc(-c2nc(N3CC4CCC(C3)O4)c3cnn(C4CCC5(CC4)OCCO5)c3n2)cc1`: the % of inhibition in data set [2] came to 5%.

For the molecule `CC[C@@H]1[C@H](F)C(=O)N[C@@H]1COc1nccc2cc(C(N)=O)c(OC)cc12` [ZIMLOVISERTIB], the % of inhibition is 4.3% in data set [3] (at 0.01 µM); -11.1% in [3] (at 0.04 µM); -18.3% in data set [3] (at 0.2 µM); -7.3% in [3] (at 1 µM); -18.8% in data set [3] (at 5 µM).

Turning to `CN(C(=O)c1cnn2cccnc12)c1cc2c(cc1N1CCOCC1)C(=O)N(C[C@@H](F)C(C)(C)O)C2`, the dTM in data set [4] was 0 K.

For the molecule `C=CC(=O)Nc1cc(-n2c(=O)ccc3cnc4ccc(-c5ccc(NS(C)(=O)=O)cc5)cc4c32)ccc1C`, the % of control in data set [5] (at 1 µM) and in [5] (at 10 µM) was 100% throughout.

Consider `O[C@H]1CC[C@H](Nc2ncc3nc(Nc4c(F)cc(F)cc4F)n([C@H]4CCOC4)c3n2)CC1`, for which, in data set [6], the % of control was determined as 96%.

On to `CCC(=O)N1CCN(c2ccc(-n3c(=O)ccc4cnc5ccc(-c6cnc7ccccc7c6)cc5c43)cc2C(F)(F)F)CC1`, for which the % of control in data set [7] was found to be 91%.

With `CCn1c(-c2nc3cc(C(=O)N4CCCC(N)C4)ccc3n2C)cc2ccccc21` (stereo not given), in data set [8], the XC50 was > 25.1 µM.

`CC(=O)Nc1cccc(-n2c(=O)n(C3CC3)c(=O)c3c(Nc4ccc(I)cc4F)n(C)c(=O)c(C)c32)c1` came in with a % of control in data set [9] of 101%.

Take `COc1cc(N(C)c2ccnc3ccc(C(F)(F)F)cc23)cc(OC)c1OC`: the % binding in data set [10] worked out at 94%.
